Measured values taken from US10227331B2 (priority 2015, dated 2019).

Assays:
[1] = test system: P. aeruginosa expressing IMP-1, efflux+ (MB9798); assay type: cell-based, Pseudomonas aeruginosa; settings: for P. aeruginosa expressing IMP-1, efflux+ (MB9798) MITC95: imipenem at 2 μg/mL, in the presence of a class A, C, D serine β-lactamase inhibitor closely related to relebactam; for Efflux ratio: ratio MITC95 PA_9798/MITC95 PA_9799
Text: (§1) The strain background is Pseudomonas aeruginosa PAO1.

[2] = molecular target: IMP-1 (Serratia marcescens, UniProt P52699); experiment: biochemical; assay type: biochemical; settings: CCF2-FA substrate, 2 hours at 25° C; read-out: IMP-1 IC50
IMP-1, sequence (P52699 whole entry, looked up, species assumed): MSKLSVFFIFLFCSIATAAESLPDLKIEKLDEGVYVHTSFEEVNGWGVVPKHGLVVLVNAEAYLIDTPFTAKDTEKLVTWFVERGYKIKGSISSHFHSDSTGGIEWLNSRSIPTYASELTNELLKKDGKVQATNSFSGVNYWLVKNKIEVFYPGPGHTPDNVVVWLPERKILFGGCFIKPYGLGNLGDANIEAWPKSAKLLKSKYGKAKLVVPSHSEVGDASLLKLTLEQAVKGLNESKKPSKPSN
Method in brief: (§2)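 Test compound, enzyme and the FRET cephalosporin substrate CCF2-FA are incubated together for 2 hours at 25° C. Cleavage is followed by fluorescence, and IC50 values are derived from semi-logarithmic inhibition curves fitted with a 4-parameter model.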

[3] = molecular target: NDM-1 (Klebsiella pneumoniae, UniProt C7C422); experiment: biochemical; assay type: biochemical; settings: CCF2-FA substrate, 2 hours at 25° C; read-out: NDM-1 IC50
NDM-1, sequence (C7C422 whole entry, looked up, species assumed): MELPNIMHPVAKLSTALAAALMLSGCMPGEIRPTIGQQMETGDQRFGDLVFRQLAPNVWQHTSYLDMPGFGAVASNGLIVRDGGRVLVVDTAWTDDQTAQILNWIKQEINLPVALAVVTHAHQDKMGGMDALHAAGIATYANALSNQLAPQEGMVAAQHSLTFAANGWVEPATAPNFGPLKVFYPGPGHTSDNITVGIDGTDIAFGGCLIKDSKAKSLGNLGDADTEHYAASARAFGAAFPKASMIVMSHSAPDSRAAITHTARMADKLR
Method in brief: as §2

[4] = molecular target: VIM-1 (Pseudomonas aeruginosa (strain ATCC 15692 / DSM 22644 / CIP 104116 / JCM 14847 / LMG 12228 / 1C / PRS 101 / PAO1), UniProt A0A0F7KYQ8); experiment: biochemical; settings: CCF2-FA substrate, 2 hours at 25° C
Method in brief: as §2

[5] = test system: Serratia marcescens expressing IMP-1 (CL5741); assay type: cell-based; settings: with imipenem 1 μg/ml, 95% inhibition of bacterial growth; for Serratia marcescens MITC95: IMP-1 (CL5741)
Method in brief: (§3)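 Clinical strains grown overnight on blood agar, then diluted 1:100 in 1.1× CAMHB and exposed to test compound with imipenem at 1 μg/ml. Incubation was 22–24 h at 35° C; growth was read by absorbance to find the compound concentration restoring imipenem susceptibility.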

[6] = test system: Klebsiella pneumoniae expressing VIM-1 (IHMA599644); assay type: cell-based; settings: with imipenem 1 μg/ml, 95% inhibition of bacterial growth; for Klebsiella pneumoniae MITC95: VIM-1 (IHMA599644)
Method in brief: as §3

[7] = test system: Escherichia coli expressing NDM-1 (CLB30005, CLB30016); assay type: cell-based; settings: with imipenem 1 μg/ml, 95% inhibition of bacterial growth; for Escherichia coli MITC95: NDM-1 (CLB30016)
Method in brief: as §3

[8] = test system: P. aeruginosa expressing IMP-1, efflux− (MB9799); experiment: Efflux: concentration of MBL inhibitor which restores susceptibility to imipenem; assay type: cell-based, Pseudomonas aeruginosa; settings: imipenem at 2 μg/mL, in the presence of a class A, C, D serine β-lactamase inhibitor closely related to relebactam
Text: as §1

Compound | P. aeruginosa expressing IMP-1, efflux+ (MB9798) MITC95 [1] | Efflux ratio [1] | IC50 [2] | IC50 [3] | IC50 [4] | Serratia marcescens expressing IMP-1 (CL5741) MITC95 [5] | Klebsiella pneumoniae expressing VIM-1 (IHMA599644) MITC95 [6] | Escherichia coli expressing NDM-1 (CLB30016) MITC95 [7] | P. aeruginosa expressing IMP-1, efflux− (MB9799) MITC95 [8] | Serratia marcescens MITC95 [5] | Klebsiella pneumoniae MITC95 [6] | Escherichia coli MITC95 [7]
Nc1nc2ccc(-c3ccc(S(=O)(=O)C4CNC4)c(S(N)(=O)=O)c3-c3nn[nH]n3)cc2o1 [Example 29, 3-(2-aminobenzo[d]oxazol-6-yl)-6-(azetidin-3-ylsulfonyl)-2-(2H-tetrazol-5-yl)benzenesulfonamide] | 3.125 µM | 2.00 | 0.313 nM | 0.24 nM | 0.328 nM | 1.563 µM | 3.125 µM | 1.563 µM | 1.563 µM |  |  | 
Cn1nc(N)c2c(-c3ccc(S(=O)(=O)C4CNC4)c(S(N)(=O)=O)c3-c3nnn[nH]3)cccc21 [Example 265, 3-(3-amino-1-methyl-1H-indazol-4-yl)-6-(azetidin-3-ylsulfonyl)-2-(1H-tetrazol-5-yl) benzenesulfonamide] | 6.25 µM | 4.00 | 1.49 nM | 0.168 nM | 0.239 nM |  |  |  | 1.563 µM | 1.563 µM | 6.25 µM | 3.125 µM
C[S+]([O-])c1ccc(-c2ccc(C3CCNCC3)cc2)c(-c2nnn[nH]2)c1S(N)(=O)=O (stereo not drawn) [Example 235, 4-(methylsulfinyl)-4′-(piperidin-4-yl)-2-(1H-tetrazol-5-yl)-[1,1′-biphenyl]-3-sulfonamide] | 50 µM | 8.00 | 23.6 nM | 31.9 nM | 8.18 nM | 12.5 µM | 50 µM | 12.5 µM | 6.25 µM |  |  | 
C[C@H](N)CS(=O)(=O)c1ccc(-c2cccc3c2nc(N)n3C)c(-c2nn[nH]n2)c1S(N)(=O)=O [Example 276, 3-(2-amino-1-methyl-1H-benzo[d]imidazol-4-yl)-6-((S)-2-aminopropylsulfonyl)-2-(2H-tetrazol-5-yl)benzenesulfonamide] | 1.563 µM | 2.00 | 0.285 nM | 0.24 nM | 0.214 nM |  |  |  | 0.7813 µM | 0.7813 µM | 3.125 µM | 0.7813 µM
Nc1nc2c(-c3ccc(S(=O)(=O)C4CNC4)c(S(N)(=O)=O)c3-c3nn[nH]n3)cccc2c(=O)[nH]1 [Example 37, 3-(2-amino-4-oxo-3,4-dihydroquinazolin-8-yl)-6-(azetidin-3-ylsulfonyl)-2-(2H-tetrazol-5-yl)benzenesulfonamide] | 3.125 µM | 2.00 | 1.9 nM | 0.081 nM | 0.348 nM | 3.125 µM | 6.25 µM | 25 µM | 1.563 µM |  |  | 
NS(=O)(=O)c1c(S(=O)(=O)C2CNC2)ccc(-c2ccc3cnccc3c2)c1-c1nnn[nH]1.O=C(O)C(F)(F)F [Example 116, 3-((4-(isoquinolin-6-yl)-2-sulfamoyl-3-(1H-tetrazol-5-yl)phenyl)sulfonyl)azetidin-1-ium 2,2,2-trifluoroacetate] | 25 µM | 15.99 | 0.722 nM | 0.199 nM | 0.177 nM | 3.125 µM | 3.125 µM | 1.563 µM | 1.563 µM |  |  | 
Nc1nc2cc(-c3ccc(S(=O)(=O)C4CNC4)c(S(N)(=O)=O)c3-c3nn[nH]n3)ccc2[nH]1 [Example 40, 3-(2-amino-1H-benzo[d]imidazol-5-yl)-6-(azetidin-3-ylsulfonyl)-2-(2H-tetrazol-5-yl)benzenesulfonamide] | 3.125 µM | 5.61 | 1.99 nM | 0.409 nM | 0.348 nM | 0.5573 µM | 1.375 µM | 0.4453 µM | 0.5573 µM |  |  | 
Cc1ccc(-c2ccc(S(C)(=O)=O)c(S(N)(=O)=O)c2-c2nn[nH]n2)c2nc(N)sc12 [Example 193, 3-(2-amino-7-methylbenzo[d]thiazol-4-yl)-6-(methylsulfonyl)-2-(2H-tetrazol-5-yl)benzenesulfonamide] | 6.25 µM | 4.00 | 0.0941 nM | 0.137 nM | 0.106 nM | 1.563 µM | 6.25 µM | 3.125 µM | 1.563 µM |  |  | 
Nc1nc2c(-c3ccc(S(=O)(=O)C4CN(CCO)C4)c(S(N)(=O)=O)c3-c3nn[nH]n3)cccc2[nH]1 [Example 53, 3-(2-amino-1H-benzo[d]imidazol-4-yl)-6-(1-(2-hydroxyethyl)azetidin-3-ylsulfonyl)-2-(2H-tetrazol-5-yl)benzenesulfonamide] | 12.5 µM | 2.00 | 6.12 nM | 0.458 nM | 1.54 nM | 6.25 µM | 12.5 µM | 12.5 µM | 6.25 µM |  |  | 
Nc1nc2cccc(-c3ccc(S(=O)(=O)C4CCN(CCO)CC4)c(S(N)(=O)=O)c3-c3nn[nH]n3)c2[nH]1 [Example 47, 3-(2-amino-3H-benzo[d]imidazol-4-yl)-6-(1-(2-hydroxyethyl)piperidin-4-ylsulfonyl)-2-(2H-tetrazol-5-yl)benzenesulfonamide] | 6.25 µM | 4.00 | 0.846 nM | 0.214 nM | 0.361 nM | 3.125 µM | 3.125 µM | 1.563 µM | 1.563 µM |  |  | 
Cc1nc(N)ccc1-c1ccc(S(=O)(=O)CCN)c(S(N)(=O)=O)c1-c1nnn[nH]1.O=C(O)C(F)(F)F [Example 170, 2-((4-(6-amino-2-methylpyridin-3-yl)-2-sulfamoyl-3-(1H-tetrazol-5-yl)phenyl)sulfonyl)ethanaminium 2,2,2-trifluoroacetate] | 6.25 µM | 4.00 | 2.87 nM | 3.48 nM | 1.01 nM | 0.7813 µM | 3.125 µM | 0.3906 µM | 1.563 µM |  |  | 
